What follows are compounds tested on S. cerevisiae RPL19A-GFP strain, flow cytometry GFP, 3 h (assay: RPL19A-GFP expression changes in yeast, dose response, cell-based, cherry pick 3, SAR, flow cytometry GFP, multiplex (AID 488814)).

EC50 | SMILES
0.876 µM | Cc1ccc(NN2C(=O)C=C(c3ccccc3)C2=O)cc1
14.7 µM | Cc1ccc2c(Cl)cc(Cl)c(O)c2n1
15.3 µM | CC1=NNC(=O)/C1=C\c1cn(-c2ccccc2)nc1-c1ccc(F)cc1

From PubChem BioAssay AID488814 (NMMLSC, 2010)
